Experimental data reported in US7267815B2, “Methods and reagents for the enhancement of virus transduction in the bladder epithelium” (priority 2002, dated 2007).

Key:
[1] = test system: SW780+ Luc orthotopic bladder tumor; experiment: DDM as chemical enhancer prior to Ad.LacZ infection of orthotopic bladder tumor model; type: in vivo, NCR nu/nu Mouse; settings: DDM pretreatment (QQ5 minQ), 15 min Ad.Lac Z, 96 hrs; except dead necrotic tumor cells
Description: (§1) In each case, >90% Ad-βgal expression was achieved. Therefore, DDM from either manufacturer is a good candidate for a chemical enhancer for adenovirus infection in mice bladder. Efficacy of Dodecyl-β-D-Maltoside as Chemical Enhancer Prior to Adenovirus Infection of SW780+ Luc Orthotopic Bladder Tumor Model in Mice • Species: Female NCR nu/nu Mouse (Taconic Laboratory)-2/group • Study Design: To show DDM pretreatments enhance Ad.Lac Z infectivity in mice bladder urothelium. To further confirm the enhancer effect on orthotopic tumors, two mice bearing orthotopic SW780 bladder tumors were pretreated with or without DDM (QQ5 minQ) followed by 15 min Ad.Lac Z instillation. The Ad.Lac Z gene expression levels were checked in these tumor cells 4 days post Ad.Lac Z infection. • Dose/Route:
Dodecyl-β-D-Maltoside (Lot#018H7250).
Results: There was a significant difference in Ad-βgal gene expression levels between mice bladders pretreated with DDM and control animals. Without DDM pretreatment, there was very low Ad-βgal gene expression levels in bladder epithelium cells and tumor cells. With DDM pretreatment, nearly 100% of the epithelium cells were transduced with Ad-βgal gene in bladder tumors except those dead necrotic tumor cells. It was concluded that DDM pretreatment enhances Adenovirus infection in orthotopic tumor cells. […]

mice bladder urothelium [2] = experiment: DDM from two suppliers as pretreatment agent prior to adenovirus infection; type: in vivo, Balb/c Mouse; settings: two different lots of DDM, pretreatment QQ5 minQ, 1×10^10 vp/dose for 15 min
Description: Rat bladders infected with 4×10^10 vp adenovirus achieved >90% Ad-βgal gene expression levels whereas rat bladders infected with 4×10^9 vp adenovirus had Ad-βgal gene expression levels range from 30% to 50%. […] Efficacy of Dodecyl-β-D-Maltoside as a Pretreatment Agent Prior to Adenovirus Infection of Mice Bladder Urothelium • Species: Female Balb/c Mouse (Taconic Laboratory)—2/group • Study Design: To test DDM from two different suppliers as pretreatment agents to enhance the adenovirus infection of mice bladder urothelium in a large group of animals. • Dose/Route:
as §1, with “Dose/Route: […]” for “Dose/Route:”

mice bladder urothelium [3] = experiment: Effects of different diluents on adenovirus infectivity after DDM pretreatment; type: in vivo, Balb/c Mouse; settings: DDM pretreatment (QQ5 minQ); virus diluted 100 fold with different diluents, 45 min, 1×10^9 vp/dose
Procedure: • Species: Female Balb/c Mouse (Taconic Laboratory)—2/group • Study Design: To test the effects of different diluents on Adenovirus infectivity of mice urothelium followed DDM pretreatment (QQ5 minQ). The virus would be diluted 100 fold with the diluents prior to instillation into mice bladder for 45 min. • Dose/Route:
Dodecyl-β-D-Maltoside (Lot #100K5308).
All the animals had >90% in Ad-βgal gene expression in mice bladder. Adenovirus Dose Titration with Different Chemical Agents Pretreatment on SD Rat Bladder Epithelium • Species: Female Sprague Dawley Rat (Taconic Laboratory)—2/group • Study Design: To test the virus infectivity of rat bladder epithelium with different doses of Adenovirus following the pretreatment with SDS or DDM. This study also explored relationship between bladder volume and residual of SDS or DDM for adenovirus infectivity. • Dose/Route: […]

mice bladder urothelium [4] = experiment: Adenovirus formulated with different concentrations of Dodecyl-β-D-Maltoside, infectivity of bladder urothelium; type: in vivo, Balb/c Mouse; settings: for gene expression in bladder: 20 min. instillation
Procedure: • Species: Female Balb/c Mouse (Taconic Laboratory)-2/group • Study Design: To test the effect of formulating Ad-βgal virus with different concentrations of Dodecyl-β-D-Maltoside and the resultant infection of mice bladder urothelium • Dose/Route (Viral Particles #/dose):
An equal volume of 2× DDM and 2× Ad.CMV.LacZ was mixed together immediately before instillation into the bladder. […] But with 45 min. instillation, all animals with 0.05%-0.2% DDM with Ad-βgal virus had 100% gene expression in mice bladder.

With `CCCCCCCCCCCCO[C@@H]1O[C@H](CO)[C@@H](O[C@H]2O[C@H](CO)[C@@H](O)[C@H](O)[C@H]2O)[C@H](O)[C@H]1O` [n-dodecyl β-D-maltoside, n-dodecyl-β-D-maltoside] the “epithelium cells transduced with Ad-βgal gene in bladder tumors” value [1] was roughly 100%, the Ad-βgal expression (mice bladder urothelium [2]) was greater than 90% and the “Ad-βgal gene expression in mice bladder” value (mice bladder urothelium [3]) was greater than 90%. The “gene expression in bladder” value (mice bladder urothelium [4]; 0.05% DDM formulated with Ad-βgal virus) was “about 40%”, the “gene expression in mice bladder” value (mice bladder urothelium [4]; 0.05%-0.2% DDM with Ad-βgal virus, 45 min. instillation) was 100% and the “gene expression in bladder” value (mice bladder urothelium [4]; 0.1% DDM formulated with Ad-βgal virus) was “about 80%”. The “gene transduction (in words)” value (mice bladder urothelium [4]; 10 min. virus instillation after DDM pretreatment) was “gene transduction could be achieved” and the “transduction rate (in words)” value (mice bladder urothelium [4]; DDM formulated with virus, 10 min. instillation) was “did not achieve an acceptable transduction rate”.
